Experimental findings from patent US7902195B2, “Pyridine [3,4-b] pyrazinones” (Pharmacia & Upjohn Company LLC, priority 2006, dated 2011) are described below.

Bounds are passed on as bounds.

The target in the experiment is T1, PDE5 enzyme isolated from human platelets (Homo sapiens, UniProt O76074).
T1 construct: The PDE5 enzyme for use in the assay can be obtained from human platelets; from tissue; host or cells: human platelets
Kind of experiment: Alternative human platelet PDE5 enzyme inhibition scintillation proximity assay (Method 2). Type of experiment: biochemical. The following applies: cGMP substrate 50 nM, 60 minutes at room temperature. The source says: The IC50 of a test compound can be measured using an in vitro assay using PDE5 enzyme isolated from human platelets. The IC50 is the concentration of test compound required to inhibit the hydrolysis of cGMP to GMP by the PDE5 enzyme by 50% relative to the activity of uninhibited controls. The PDE5 enzyme for use in the assay can be obtained from human platelets by appropriate modification of the method of Thompson, W J et al.; Biochemistry 18(23), 5228-5237, 1979, as described by Ballard S A et al.; J. Urology 159(6), 2164-2171, 1998. The PDE5 enzyme so obtained can be used to catalyze the hydrolysis of [^3H]cGMP (Amersham Biosciences) to 5′ nucleotide [^3H]GMP. The [^3H]GMP binds to yttrium silicate SPA beads (Amersham Biosciences) and is detected by scintillation counting. More specifically, the effect of a test compound at different concentrations can be evaluated in the assay by contacting the compound with a fixed amount of PDE5 enzyme in the presence of substrate (cGMP […] in a 3:1 ratio unlabelled to [^3H]-labeled). Scintillation counting can be used as described above to determine relative PDE5 enzyme activity. The inhibition of PDE5 enzyme activity is then calculated relative to total PDE5 enzyme activity of uninhibited controls.
Method 2: Alternative Human Platelet PDE5 Enzyme Inhibition Scintillation Proximity Assay
PDE5 IC50 Assay: 96-Well Microtiter Plate Format
Buffer A: 20 mM Tris-HCl, 5 mM MgCl2, pH 7.4
Buffer B: 2 mg/ml BSA in Buffer A (enzyme buffer)
cGMP substrate: Final concentration of 50 nM in assay
The amount of ^3H-labeled substrate added depends upon the specific activity of [^3H]cGMP, and it is diluted in Buffer A.
PDE enzyme: Prepared in Buffer B. The dilution factor is determined by enzyme activity.
SPA beads: 4 mg/ml suspension prepared in dH2O.
Stocks of standard and test compound are prepared at 2 mM in 100% DMSO. The test compound is serially diluted in a dilution plate using an 8-point ⅕ log dilution format such that the starting concentration in the assay is 2 μM for an initial IC50 screen. 27 μl of Buffer A are added to the wells of the assay plates. From the dilution plate, 3 μl of diluted compound is delivered in duplicate or 3 μl of 100% DMSO (for positive and negative controls) are added. 30 μl of enzyme are added. For the negative control wells, Buffer B is substituted in place of the enzyme. 30 μl of labeled substrate are added to all wells.
After incubating for 60 minutes at room temperature, the reaction is stopped with the addition of 30 μl of the yttrium silicate beads. These beads are dense and require constant agitation while being added to the plate. The plates are sealed and shaken on a plate shaker for fifteen minutes to allow the beads to bind the GMP product.
After allowing the beads to settle for 30 minutes, plates are read on a NXT TopCount scintillation counter and the data are analyzed as follows. Percent inhibition values are calculated using the means of the 0% and 100% controls on each plate. The estimates of the 4-parameters of the logistic, sigmoid dose-response model are then calculated using the well-level percent inhibition value for the compound. The formula for the four-parameter logistic model may be expressed as Y=((a−d)/(1+(X/c)^b))+d, where Y is the response, X is the concentration, a is the lower asymptote (minimum response), d is the upper asymptote (maximum response), c is the model IC50 (in the same units as X), and b is the slope (as described in De Lean, A., P. J. Munson, and D. Rodbard (“Simultaneous analysis of families of sigmoidal curves: application to bioassay, radioligand assay, and physiological dose-response curves.” Am. J. Physiol. 235(2): E97-E102, 1978). These estimates are used to calculate the concentration that corresponds to 50% inhibition.
Compounds were tested in accordance with Method 2 above yielding the IC50 values described in Table C.
(In general: In a scintillation proximity assay essentially only radioactivity close to the scintillant gives light.)

As a reminder, the IC50 is the concentration at which inhibition is half-maximal.

`CCCOCCn1c(=O)c(N2CCN(CCO)CC2)nc2cnc(-c3ccc(OCC)cc3)cc21` [Example 24, 7-(4-ethoxyphenyl)-3-(4-(2-hydroxyethyl)piperazin-1-yl)-1-(2-propoxyethyl)pyrido[3,4-b]pyrazin-2(1H)-one] yielded an IC50 of 1400 nM. The value for `CCCOCCn1c(=O)c(N2CCN(CCO)CC2)nc2cnc(-c3cccc(CO)c3)cc21` [Example 30, 3-(4-(2-hydroxyethyl)piperazin-1-yl)-7-(3-(hydroxymethyl)phenyl)-1-(2-propoxyethyl)pyrido[3,4-b]pyrazin-2(1H)-one] was 311 nM. The value for `CCCOCCn1c(=O)c(N2CC(C)N(CCCO)C(C)C2)nc2cnc(-c3ccc(OC)nc3)cc21` (stereo not drawn) [Example 10, 3-[4-(3-hydroxypropyl)-3,5-dimethylpiperazin-1-yl]-7-(6-methoxypyridin-3-yl)-1-(2-propoxyethyl)pyrido[3,4-b]pyrazin-2(1H)-one] was 0.193 nM; that for `CCCOCCn1c(=O)c(N2CCN(CCO)CC2)nc2cnc(-c3ccc(Cl)cc3)cc21` [Example 13, 7-(4-chlorophenyl)-3-(4-(2-hydroxyethyl)piperazin-1-yl)-1-(2-propoxyethyl)pyrido[3,4-b]pyrazin-2(1H)-one] was 1.35 nM; that for `CCCOCCn1c(=O)c(N2CCN(CCO)CC2)nc2cnc(-c3ccc(OC)c(C)c3)cc21` [Example 35, 3-(4-(2-hydroxyethyl)piperazin-1-yl)-7-(4-methoxy-3-methylphenyl)-1-(2-propoxyethyl)pyrido[3,4-b]pyrazin-2(1H)-one] was 1.69 nM.

The molecule `CCCOCCn1c(=O)c(N2CCN(CCCO)CC2)nc2cnc(-c3ccc(OC)nc3)cc21` [Example 11, 3-[4-(3-hydroxypropyl)piperazin-1-yl]-7-(6-methoxypyridin-3-yl)-1-(2-propoxyethyl)pyrido[3,4-b]pyrazin-2(1H)-one] had an IC50 of 0.177 nM. In turn, `CCCOCCn1c(=O)c(N2CCN(CCO)[C@@H](C)C2)nc2cnc(-c3ccc(OC)nc3)cc21` [Example 9, 3-[(3S)-4-(2-hydroxyethyl)-3-methylpiperazin-1-yl]-7-(6-methoxypyridin-3-yl)-1-(2-propoxyethyl)pyrido[3,4-b]pyrazin-2(1H)-one] gave an IC50 of 0.248 nM. In turn, `CCCOCCn1c(=O)c(N2CCNCC2)nc2cnc(-c3ccc(OC)nc3)cc21` [Example 1, 7-(6-methoxypyridin-3-yl)-3-(piperazin-1-yl)-1-(2-propoxyethyl)pyrido[3,4-b]pyrazin-2(1H)-one] registered an IC50 of 3.28 nM.

In the case of `CCCOCCn1c(=O)c(N2CCN([C@H](C)[C@@H](C)O)CC2)nc2cnc(-c3ccc(OC)nc3)cc21` [Example 45, 3-(4-((2R,3R)-3-hydroxybutan-2-yl)piperazin-1-yl)-7-(6-methoxypyridin-3-yl)-1-(2-propoxyethyl)pyrido[3,4-b]pyrazin-2(1H)-one], inhibition was half-maximal at 0.295 nM (IC50). Regarding `CCCOCCn1c(=O)c(N2CCN(CCO)CC2)nc2cnc(-c3cccc(OC)c3F)cc21` [Example 20, 7-(2-fluoro-3-methoxyphenyl)-3-(4-(2-hydroxyethyl)piperazin-1-yl)-1-(2-propoxyethyl)pyrido[3,4-b]pyrazin-2(1H)-one], the IC50 was determined as 1.59 nM. Molecule `CCCOCCn1c(=O)c(N2CCN(CCO)CC2)nc2cnc(-c3cccc4cnccc34)cc21` [Example 22, 3-(4-(2-hydroxyethyl)piperazin-1-yl)-7-(isoquinolin-5-yl)-1-(2-propoxyethyl)pyrido[3,4-b]pyrazin-2(1H)-one] came in with an IC50 of more than 2000 nM.

On to “7-(4-(dimethylamino)-2-methylphenyl)-3-(4-(2-hydroxyethyl)piperazin-1-yl)-1-(2-propoxyethyl)pyrido[3,4-b]pyrazin-2(1H)-one [Example 15]”, for which the IC50 was determined as 1190 nM. The value for `CCCOCCn1c(=O)c(N2CCN(C[C@H](C)O)CC2)nc2cnc(-c3ccc(OC)nc3)cc21` [Example 46, 3-(4-((S)-2-hydroxypropyl)piperazin-1-yl)-7-(6-methoxypyridin-3-yl)-1-(2-propoxyethyl)pyrido[3,4-b]pyrazin-2(1H)-one] was 0.306 nM; that for `CCCOCCn1c(=O)c(N2CCCC(CO)C2)nc2cnc(-c3ccc(OC)nc3)cc21` (stereo not drawn) [Example 6, 3-[3-(hydroxymethyl)piperidin-1-yl]-7-(6-methoxypyridin-3-yl)-1-(2-propoxyethyl)pyrido[3,4-b]pyrazin-2(1H)-one] was 0.313 nM; that for `CCCOCCn1c(=O)c(N2CCCN(CCCO)CC2)nc2cnc(-c3ccc(OC)nc3)cc21` [Example 48, 3-(4-(3-hydroxypropyl)-1,4-diazepan-1-yl)-7-(6-methoxypyridin-3-yl)-1-(2-propoxyethyl)pyrido[3,4-b]pyrazin-2(1H)-one] was 1.07 nM.

In turn, `CCCOCCn1c(=O)c(N2CCN(CCO)CC2)nc2cnc(-c3cccc(Cl)c3)cc21` [Example 16, 7-(3-chlorophenyl)-3-(4-(2-hydroxyethyl)piperazin-1-yl)-1-(2-propoxyethyl)pyrido[3,4-b]pyrazin-2(1H)-one] returned an IC50 of 3.34 nM.

`CCCOCCn1c(=O)c(N2CCN(CCO)CC2)nc2cnc(-c3ccc(F)cc3F)cc21` [Example 18, 7-(2,4-difluorophenyl)-3-(4-(2-hydroxyethyl)piperazin-1-yl)-1-(2-propoxyethyl)pyrido[3,4-b]pyrazin-2(1H)-one] returned an IC50 of 29.9 nM. The value for `CCCOCCn1c(=O)c(N2CCN(CC(C)(C)O)CC2)nc2cnc(-c3ccc(OC)nc3)cc21` [Example 43, 3-(4-(2-hydroxy-2-methylpropyl)piperazin-1-yl)-7-(6-methoxypyridin-3-yl)-1-(2-propoxyethyl)pyrido[3,4-b]pyrazin-2(1H)-one] was 0.208 nM; that for `CCCOCCn1c(=O)c(N2CCOCC2)nc2cnc(-c3ccc(OC)nc3)cc21` [Example 3, 7-(6-methoxypyridin-3-yl)-3-morpholin-4-yl-1-(2-propoxyethyl)pyrido[3,4-b]pyrazin-2(1H)-one] was 1.01 nM; that for `CCCOCCn1c(=O)c(N2CCN(CC)CC2)nc2cnc(-c3ccc(OC)nc3)cc21` [Example 39, 3-(4-ethylpiperazin-1-yl)-7-(6-methoxypyridin-3-yl)-1-(2-propoxyethyl)pyrido[3,4-b]pyrazin-2(1H)-one] was 0.217 nM. The value for `CCCOCCn1c(=O)c(N2CCN(CCO)CC2)nc2cnc(-c3ccccc3O)cc21` [Example 37, 3-(4-(2-hydroxyethyl)piperazin-1-yl)-7-(2-hydroxyphenyl)-1-(2-propoxyethyl)pyrido[3,4-b]pyrazin-2(1H)-one] was 18.1 nM; that for `CCCOCCn1c(=O)c(N2CCN(C[C@@H](C)O)CC2)nc2cnc(-c3ccc(OC)nc3)cc21` [Example 47, 3-(4-((R)-2-hydroxypropyl)piperazin-1-yl)-7-(6-methoxypyridin-3-yl)-1-(2-propoxyethyl)pyrido[3,4-b]pyrazin-2(1H)-one] was 0.226 nM. For the molecule `CCCOCCn1c(=O)c(N2CCN(CC(=O)O)CC2)nc2cnc(-c3ccc(OC)nc3)cc21` [Example 8, {4-[7-(6-methoxypyridin-3-yl)-2-oxo-1-(2-propoxyethyl)-1,2-dihydropyrido[3,4-b]pyrazin-3-yl]piperazin-1-yl}acetic acid], the IC50 came out at 0.517 nM. Take `CCCOCCn1c(=O)c(N2CCN(CCO)CC2)nc2cnc(-c3ccccc3F)cc21` [Example 38, 7-(2-fluorophenyl)-3-(4-(2-hydroxyethyl)piperazin-1-yl)-1-(2-propoxyethyl)pyrido[3,4-b]pyrazin-2(1H)-one]: the IC50 was determined as 42.2 nM.
